# The supplement of paper PMC10307832
# Legend:
# Assay in all cases: relative viability (nuclei count vs DMSO), 5 days (fraction); higher = more cells survive
# PAC-1 = compound: C=CCc1cccc(/C=N/NC(=O)CN2CCN(Cc3ccccc3)CC2)c1O [PAC-1]
# Method in brief: (§1)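 Only plates meeting two conditions passed: control CV below 25% and at least one doubling. Lung cancer cell lines, kept overnight at 37 °C in 1536-well plates, were pinned with five library-drug doses (not always all listed) √10 apart on vehicle-anchored plates and grown 5 days without medium change. A one-step fix, permeabilisation and Hoechst stain preceded 4× imaging and MetaXpress nuclear counting. Viability equals treated-well nuclei divided by vehicle-well nuclei, as the median over plates.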
# Ibrutinib = compound: C=CC(=O)N1CCC[C@@H](n2nc(-c3ccc(Oc4ccccc4)cc3)c3c(N)ncnc32)C1 [Ibrutinib]
# Method in brief: as §1
# BMX-IN-1 = compound: C=CC(=O)Nc1cc(-n2c(=O)ccc3cnc4ccc(-c5ccc(NS(C)(=O)=O)cc5)cc4c32)ccc1C [BMX-IN-1]
# Method in brief: as §1
# Ibrutinib + Foretinib = compound: C=CC(=O)N1CCC[C@@H](n2nc(-c3ccc(Oc4ccccc4)cc3)c3c(N)ncnc32)C1 [Ibrutinib] + COc1cc2c(Oc3ccc(NC(=O)C4(C(=O)Nc5ccc(F)cc5)CC4)cc3F)ccnc2cc1OCCCN1CCOCC1 [Foretinib] (partner 0.25 µM)
# Method in brief: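 A single step with final 0.05% Triton X-100, 1% formaldehyde and 1 ug/ml Hoechst fixed the cells and stained nuclei 5 days after treatment. Lung cancer cell lines in 1536-well plates had been treated by pin tool the day after seeding with one drug alone or a fixed anchor-drug dose plus five library-drug doses (not always all listed) in √10 steps, and nuclei were counted on 4× images. Relative viability is the ratio of nuclei in treated wells to nuclei in vehicle wells, taken as the median of duplicate plates.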
Cell Line,relative viability (PAC-1; 0.02 µM),relative viability (PAC-1; 0.06325 µM),relative viability (PAC-1; 0.2 µM),relative viability (PAC-1; 2 µM),relative viability (Ibrutinib; 0.005 µM),relative viability (Ibrutinib; 0.01581 µM),relative viability (Ibrutinib; 0.05 µM),relative viability (Ibrutinib; 0.1581 µM),relative viability (Ibrutinib; 0.5 µM),relative viability (BMX-IN-1; 0.02 µM),relative viability (BMX-IN-1; 0.2 µM),relative viability (BMX-IN-1; 0.6325 µM),relative viability (BMX-IN-1; 2 µM),relative viability (Ibrutinib + Foretinib; first compound 0.005 µM),relative viability (Ibrutinib + Foretinib; first compound 0.01581 µM),relative viability (Ibrutinib + Foretinib; first compound 0.05 µM),relative viability (Ibrutinib + Foretinib; first compound 0.1581 µM),relative viability (Ibrutinib + Foretinib; first compound 0.5 µM)
201T,0.959,1.02,1.01,0.981,0.979,0.992,0.964,0.876,0.955,1.11,0.996,1.05,1.03,1.02,1,0.965,1.03,1.08
A549,0.994,0.962,0.943,0.96,0.884,0.891,1,0.988,0.935,1.17,1.17,1.05,1.07,0.878,0.852,1.03,0.984,0.877
A-427,1.01,1.04,0.976,0.97,0.9,0.969,0.953,0.951,0.98,1.08,1.12,1.17,1.03,1.01,0.944,1.04,–,1.02
ABC-1,0.992,0.952,0.975,0.887,0.907,0.761,0.887,0.744,0.94,1.05,1.02,1.01,1.05,1.27,0.961,1.28,1.09,0.897
BEN,0.987,0.901,0.912,1.04,–,0.925,0.843,0.718,0.997,1.17,1.27,0.861,1.01,–,0.724,0.418,0.444,0.672
CAL-12T,1.02,1.11,0.984,0.947,0.824,0.907,0.902,0.932,0.678,1.08,0.995,1.03,0.989,1.11,0.958,0.981,1.14,1.19
COR-L23,1.09,1,0.9,1,1.09,0.967,1.03,1.03,1.18,1.35,1.16,1.17,1.07,1.08,0.886,1.04,0.926,1
COR-L 105,0.919,0.901,0.903,0.985,0.806,0.878,0.676,0.814,0.393,1.07,0.937,1.3,0.961,1,0.933,0.969,1.04,0.602
Calu-6,0.98,1.01,0.964,1.01,1.1,0.965,1,1.01,1.03,1.14,1.06,1.2,0.999,0.961,0.853,0.918,0.844,0.826
ChaGo-K-1,1.05,1.01,1,0.929,0.953,0.95,0.958,0.913,1.02,1.14,1.05,0.963,1.02,0.842,0.902,0.937,0.954,0.853
EBC-1,1.04,0.932,0.949,1,1.09,0.947,0.922,0.97,1.06,1.06,0.952,1.14,0.964,0.0898,0.102,0.102,0.0945,0.098
EKVX,1.02,0.977,0.934,0.98,0.955,0.95,0.901,0.849,0.584,1.02,0.944,1.02,1.01,0.835,0.762,0.802,0.617,0.232
EMC-BAC-2,0.998,1.02,1.09,0.97,0.897,1.01,0.739,–,0.96,1,1.13,1.07,0.95,0.88,0.894,–,0.969,0.797
EPLC-272H,0.877,1.04,0.941,0.929,0.681,0.859,0.677,0.686,0.664,1.01,0.954,0.874,0.952,0.675,0.474,0.409,0.584,0.434
H3255,1.07,1.01,0.942,0.909,0.912,0.858,0.745,0.945,0.547,1.08,0.974,1.12,1.02,0.66,0.986,0.711,0.993,0.53
HARA,0.98,1.08,0.905,1.03,0.976,0.965,0.689,0.793,0.457,1.05,1.04,1.08,1.08,0.917,0.717,0.705,0.933,0.403
HCC-15,1.09,1.08,0.969,1.08,1.12,1.01,1.04,0.857,1,1.11,1.1,1.11,1.13,0.978,0.929,1.08,1.08,1.01
HCC-44,0.99,1.05,0.997,0.981,1.04,0.995,0.994,1.02,1.04,1.03,1.06,1.13,0.998,–,–,–,–,–
HCC-78,1.01,0.892,0.974,1.11,0.904,0.97,0.916,0.748,0.691,1.01,1.08,1.02,0.952,0.651,0.489,0.527,0.547,0.348

Cell Line,relative viability (PAC-1; 0.02 µM),relative viability (PAC-1; 0.06325 µM),relative viability (PAC-1; 0.2 µM),relative viability (PAC-1; 2 µM),relative viability (Ibrutinib; 0.005 µM),relative viability (Ibrutinib; 0.01581 µM),relative viability (Ibrutinib; 0.05 µM),relative viability (Ibrutinib; 0.1581 µM),relative viability (Ibrutinib; 0.5 µM),relative viability (BMX-IN-1; 0.02 µM),relative viability (BMX-IN-1; 0.2 µM),relative viability (BMX-IN-1; 0.6325 µM),relative viability (BMX-IN-1; 2 µM),relative viability (Ibrutinib + Foretinib; first compound 0.005 µM),relative viability (Ibrutinib + Foretinib; first compound 0.01581 µM),relative viability (Ibrutinib + Foretinib; first compound 0.05 µM),relative viability (Ibrutinib + Foretinib; first compound 0.1581 µM),relative viability (Ibrutinib + Foretinib; first compound 0.5 µM)
HCC-366,0.997,0.979,1.02,1.03,1,0.962,0.968,0.913,1,1.13,1.09,1.05,1.04,1.04,0.909,0.958,0.866,0.881
HCC-827,1.08,1.04,1.07,1.03,–,1.01,1.08,1.02,0.868,1.05,1.06,1.09,1.04,1.04,0.993,0.813,1.03,0.165
HOP-62,1.05,1,0.996,1.07,1.02,0.964,0.994,0.949,1.14,1.1,1.08,1.08,1.06,1.19,1.11,1.17,1.21,1.3
IA-LM,1.09,1.05,0.89,1.03,0.794,1,1.06,1.05,1.04,1,0.997,1.04,1.02,1.11,1.04,1.1,1.24,1.1
LC-2-ad,1.01,1.04,1.01,0.974,0.996,0.973,0.941,0.905,0.995,1.1,1.05,1.08,1.02,0.958,0.747,0.856,0.886,0.836
LCLC-97TM1,0.897,1.16,0.807,0.937,1.11,0.888,0.906,0.85,0.909,1.04,1.11,1.12,1.02,0.945,0.881,1,1,0.843
LCLC-103H,1,0.975,1.02,1.01,0.966,0.999,0.965,0.882,0.946,1.09,1.1,1.07,1.1,0.809,0.623,0.792,0.835,0.728
LK-2,0.933,0.983,1,1.02,0.936,0.912,0.956,0.929,0.949,1.31,1.24,0.978,1.02,–,–,1.32,1.27,0.996
LOU-NH91,0.891,0.959,0.917,0.972,0.801,0.926,0.848,0.884,0.678,–,0.973,1.08,0.989,0.861,0.769,0.679,0.913,0.568
LU99A,0.908,0.977,0.892,0.954,0.992,0.884,0.892,1.06,0.939,0.986,0.95,1.06,0.962,0.734,0.703,0.856,0.945,0.497
LXF-289,0.974,1.01,0.997,1.01,1.06,1.01,1.04,0.972,0.973,1.06,1.05,1.01,1.02,0.946,0.958,0.995,0.917,0.956
NCI-H23,0.845,1.03,0.921,1.13,0.829,0.897,0.912,0.761,0.977,0.963,1.1,1.16,1.09,0.988,0.884,0.939,0.914,0.641
NCI-H322M,0.833,0.897,1.05,0.884,0.801,0.811,0.843,0.666,0.671,1.07,0.905,0.967,0.943,0.872,0.864,0.899,0.989,0.642
NCI-H358,0.921,0.848,0.905,0.789,0.637,0.713,0.611,0.786,0.47,1.12,0.962,1.04,0.914,0.294,–,0.35,0.551,0.291
NCI-H441,1.03,1.09,0.997,1.04,1.11,0.947,1.26,1.16,1.13,1.19,1.31,1.28,1.17,0.898,1.11,1.1,1.08,0.895
NCI-H522,1.08,1.1,0.872,1.05,0.796,1.09,0.85,0.752,0.76,0.882,0.906,1.04,0.938,–,–,–,–,–
NCI-H1648,0.795,1.07,0.931,0.991,0.758,0.751,0.676,0.792,0.63,0.937,0.878,0.792,0.829,–,–,–,–,–
NCI-H1792,0.951,0.991,0.996,0.95,–,1.06,0.925,0.567,0.762,1.03,1.2,1.5,0.991,–,–,–,–,–
